According to patent publication US20240216352A1 (priority 2022, published 2024):
Values joined by “and” are separate entries in the source; they are usually repeats but may differ in a detail not shown here. Identical values can stand only once.

Tested on: participants with IPF
Experiment: Phase 2 study, IPF cohort: efficacy (ppFVC, FVC)
Assay type: in vivo, human
Details: for Efficacy versus PBO (ppFVC, FVC): Week 26, overall population with and without SoC; for Relative reduction in rate of decline in ppFVC vs PBO: Week 26, overall; for Slope difference in rate of decline in FVC, 60 mg - PBO: adjusted for age, gender, height
Experimental: A total of 278 participants with IPF were randomized and 276 participants were treated as of the final analyses data cut-off (4 Aug. 2022). Male and female participants […] with IPF and percent predicted forced vital capacity (ppFVC) […] and percent predicted DLCO (ppDLCO)≥25%; diagnosed within 7 years of screening; having a centrally-read chest HRCT obtained at screening that was consistent with UIP or probable UIP, or having a lung biopsy consistent with UIP, were eligible to enter the study. The mean baseline ppFVC for all subjects was 76.5%. In the primary IPF cohort, participants were randomized (1:1:1) to receive 30 mg or 60 mg Compound A or placebo (PBO) twice daily for 26 weeks. Participants were stratified by standard of care (SoC) IPF therapy (pirfenidone versus nintedanib versus none) and region (Japan versus Rest of World) at randomization.
The primary objective of the study was to determine the rate of change in ppFVC from baseline to Week 26. The primary objective was evaluated with a two estimand framework to handle the intercurrent event of dose reduction to 10 mg BID or matching PBO when pre-specified low BP criteria is met. The primary estimand is adopted to estimate treatment effect when dose reduction is implemented. The supplementary estimand is adopted to estimate the effect of treatment without dose reduction.
Analysis Strategy: The primary estimand was to evaluate the efficacy of Compound A at 30 mg or 60 mg twice daily, compared to PBO in IPF participants who met the enrollment criteria, with or without use of SoC. The rate of decline in ppFVC (%) from baseline to Week 26 was compared using the difference between each dose and PBO as a population level summary regardless of dose reduction or treatment discontinuation for any reason (treatment policy strategy).
Analysis Strategy: The supplementary estimand for the primary objective is to evaluate the efficacy of Compound A at 30 mg or 60 mg twice daily without dose reduction, compared to the PBO in IPF subjects who met the enrollment criteria, with or without use of SoC. The rate of decline in ppFVC (%) from baseline to Week 26 has been compared using the difference between each dose and PBO as a population level summary regardless of treatment discontinuation for any reason (treatment policy strategy). In the event of dose reduction, data collected after dose reduction will not be considered relevant to the treatment effect of interest and therefore, will be treated as missing (while-on-treatment strategy).

[1] = 60 mg BID, baseline to Week 26, No SoC, supplementary estimand
[2] = 60 mg BID, baseline to Week 26, overall, primary estimand
[3] = 60 mg BID, baseline to Week 26, overall, supplementary estimand

SMILES: CCCN(C)C(=O)OCc1c(-c2ccc(O[C@H]3CCC[C@H](C(=O)O)C3)c(C)n2)nnn1C [Compound A, (1S,3S)-3-((2-methyl-6-(1-methyl-5-(((methyl(propyl)carbamoyl)-oxy)methyl)-1H-1,2,3-triazol-4-yl)pyridin-3-yl)oxy)cyclohexane-1-carboxylic acid]
- Acute exacerbations of lung fibrosis, patients (30 mg BID): 3 n
- Efficacy versus PBO (ppFVC, FVC) (30 mg BID): did not demonstrate efficacy compared to PBO
- Rate of change in ppFVC over 26 weeks (30 mg BID, treatment policy strategy): −2.8%
- Rate of change in ppFVC over 26 weeks (30 mg BID, while-on-treatment strategy): −3.2%
- Acute exacerbations of lung fibrosis, patients (60 mg BID): 1 n
- Relative treatment benefit in ppFVC decline vs PBO (60 mg BID, Week 26, No SoC, primary estimand): 113%
- Relative treatment benefit in ppFVC decline vs PBO (60 mg BID, Week 26, No SoC, supplementary estimand): 123%
- Relative treatment benefit in ppFVC decline vs PBO (60 mg BID, Week 26, on background SoC, primary estimand): 39%
- Relative treatment benefit in ppFVC decline vs PBO (60 mg BID, Week 26, on background SoC, supplementary estimand): 44%
- Efficacy versus PBO (ppFVC, FVC) (60 mg BID): demonstrated favorable treatment responses versus PBO
- Relative reduction in rate of decline in ppFVC vs PBO (60 mg BID, primary estimand (treatment policy)): 54%
- Relative reduction in rate of decline in ppFVC vs PBO (60 mg BID, supplementary estimand (while-on-treatment)): 62%
- Slope difference in rate of decline in ppFVC, 60 mg - PBO (60 mg BID, baseline to Week 26, No SoC, primary estimand): 2.01±1.7% and 2.01%
- Estimated rate of decline in ppFVC, slope [1]: 0.471
- Slope difference in rate of decline in ppFVC, 60 mg - PBO [1]: 2.55±1.73% and 2.55%
- Estimated rate of decline in ppFVC, slope (60 mg BID, baseline to Week 26, SoC, supplementary estimand): −1.772
- Slope difference in rate of decline in ppFVC, 60 mg - PBO (60 mg BID, baseline to Week 26, on background SoC, primary estimand): 1.22±0.87% and 1.22%
- Slope difference in rate of decline in ppFVC, 60 mg - PBO (60 mg BID, baseline to Week 26, on background SoC, supplementary estimand): 1.41±0.89% and 1.41%
- Slope of decline in FVC, 60 mg arm [2]: -54.3 ± 20.76 mL
- Slope difference in rate of decline in ppFVC, 60 mg - PBO (60 mg BID, baseline to Week 26, overall, primary estimand (treatment policy)): 1.45±0.81% and 1.4% and 1.45%
- Slope difference in rate of decline in FVC, 60 mg - PBO [2]: 46.9 ± 29.14 mL and 46.9 mL
- Estimated rate of decline in ppFVC, slope [3]: −1.1% and −1.08%
- Slope of decline in FVC, 60 mg arm [3]: -47.2 ± 20.92 mL
- Slope difference in rate of decline in ppFVC, 60 mg - PBO (60 mg BID, baseline to Week 26, overall, supplementary estimand (while-on-treatment)): 1.77±0.82% and 1.8% and 1.77%
- Slope difference in rate of decline in FVC, 60 mg - PBO [3]: 61.4 mL
- Posterior probability of a positive treatment difference vs placebo (Bayesian analysis) (60 mg BID, under both estimand strategies): > 95%
- Adjusted mean treatment difference in absolute change in FVC vs placebo (60 mg BID, week 26): 45.5 mL
